# In ChEMBL document CHEMBL1201862, “PubChem BioAssay data set” (2004):
#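 A five-concentration, 48-hour dose response in 96-well plates underlies each endpoint, interpolated linearly between surrounding concentrations. GI50 = concentration required for 50% inhibition of growth.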 Activity calls are given as the source filed them. No stated cut-off is given here; in the data, active = GI50 up to about 1.1 µM and inactive = higher.
# Experiments:
# Assay in all cases: DTP human tumour cell line panel, 48 h
# 786-0 = test system: 786-0
# SK-OV-3 = test system: SK-OV-3
# SW-620 = test system: SW-620
# UACC-62 = test system: UACC-62
# SK-MEL-28 = test system: SK-MEL-28
# HCC 2998 = test system: HCC 2998
# OVCAR-8 = test system: OVCAR-8
# BT-549 = test system: BT-549
# OVCAR-4 = test system: OVCAR-4
# CCRF-CEM = test system: CCRF-CEM
# HCT-116 = test system: HCT-116
# SF-268 = test system: SF-268
# MDA-MB-435 = test system: MDA-MB-435
# NCI/ADR-RES = test system: NCI/ADR-RES
# DU-145 = test system: DU-145
# MDA-N = test system: MDA-N
# TK-10 = test system: TK-10
# NCI-H522 = test system: NCI-H522
# RXF 393 = test system: RXF 393
# RPMI-8226 = test system: RPMI-8226
# MDA-MB-231 = test system: MDA-MB-231
# CAKI-1 = test system: CAKI-1
# IGROV-1 = test system: IGROV-1
# A498 = test system: A498
# HT-29 = test system: HT-29
# SNB-75 = test system: SNB-75
# NCI-H226 = test system: NCI-H226
# MOLT-4 = test system: MOLT-4
# SF-295 = test system: SF-295
# COLO 205 = test system: COLO 205
# HL-60 = test system: HL-60
# U-251 = test system: U-251
# SF-539 = test system: SF-539
# LOX IMVI = test system: LOX IMVI
# Malme-3M = test system: Malme-3M
# T47D = test system: T47D
# EKVX = test system: EKVX
# UACC-257 = test system: UACC-257
# A549 = test system: A549
# PC-3 = test system: PC-3
# SN12C = test system: SN12C
# M14 = test system: M14
# MCF7 = test system: MCF7
# KM12 = test system: KM12
# OVCAR-3 = test system: OVCAR-3
# NCI-H460 = test system: NCI-H460
# NCI-H23 = test system: NCI-H23
# HCT-15 = test system: HCT-15
# SR = test system: SR
# UO-31 = test system: UO-31
# SK-MEL-5 = test system: SK-MEL-5
# HOP-62 = test system: HOP-62
# Hs-578T = test system: Hs-578T
# SNB-19 = test system: SNB-19
# ACHN = test system: ACHN
# HOP-92 = test system: HOP-92
# OVCAR-5 = test system: OVCAR-5
# K562 = test system: K562
# SK-MEL-2 = test system: SK-MEL-2
compound,measurement,setting,value
COC1/C=C/C(C)C(OC)CC(O)/C=C/C(C)C(C(C)C(OC)C(C)CCC(=O)C(C)C(C/C=C/N(C)C=O)OC)OC(=O)/C=C/C=C(\C)CC(OC)C(OC)C2=CC(=O)O[C@@H](C(C)C(OC)C1)[C@H]2O (stereo not given in full),GI50,786-0,0.0442 µM (active)
same,GI50,SK-OV-3,0.0436 µM (active)
same,GI50,SW-620,0.0361 µM (active)
same,GI50,UACC-62,0.0571 µM (active)
same,GI50,SK-MEL-28,0.0446 µM (active)
same,GI50,HCC 2998,0.0182 µM (active)
same,GI50,OVCAR-8,0.0514 µM (active)
same,GI50,BT-549,0.0578 µM (active)
same,GI50,OVCAR-4,0.0421 µM (active)
same,GI50,CCRF-CEM,0.0499 µM (active)
same,GI50,HCT-116,0.00847 µM (active)
same,GI50,SF-268,0.0442 µM (active)
same,GI50,MDA-MB-435,0.0532 µM (active)
same,GI50,NCI/ADR-RES,0.0522 µM (active)
same,GI50,DU-145,0.0959 µM (active)
same,GI50,MDA-N,0.0507 µM (active)
same,GI50,TK-10,0.0548 µM (active)
same,GI50,NCI-H522,0.0295 µM (active)
same,GI50,RXF 393,0.039 µM (active)
same,GI50,RPMI-8226,0.346 µM (active)
same,GI50,MDA-MB-231,0.0366 µM (active)
same,GI50,CAKI-1,0.0148 µM (active)
same,GI50,IGROV-1,0.0341 µM (active)
same,GI50,A498,0.0289 µM (active)
same,GI50,HT-29,0.0356 µM (active)
same,GI50,SNB-75,0.034 µM (active)
same,GI50,NCI-H226,0.0194 µM (active)
same,GI50,MOLT-4,0.0681 µM (active)
same,GI50,SF-295,0.0345 µM (active)
same,GI50,COLO 205,0.0205 µM (active)
same,GI50,HL-60,0.0299 µM (active)
same,GI50,U-251,0.0303 µM (active)
same,GI50,SF-539,0.0313 µM (active)
same,GI50,LOX IMVI,0.00791 µM (active)
same,GI50,Malme-3M,0.04 µM (active)
same,GI50,T47D,0.0571 µM (active)
same,GI50,EKVX,0.08 µM (active)
same,GI50,UACC-257,0.0448 µM (active)
same,GI50,A549,0.0518 µM (active)
same,GI50,PC-3,0.0337 µM (active)
same,GI50,SN12C,0.0498 µM (active)
same,GI50,M14,0.0384 µM (active)
same,GI50,MCF7,0.0251 µM (active)
same,GI50,KM12,0.0399 µM (active)
same,GI50,OVCAR-3,0.00596 µM (active)
same,GI50,NCI-H460,0.0172 µM (active)
same,GI50,NCI-H23,0.0512 µM (active)
same,GI50,HCT-15,0.015 µM
same,GI50,SR,0.0617 µM (active)
same,GI50,UO-31,0.0419 µM (active)
same,GI50,SK-MEL-5,0.0387 µM (active)
same,GI50,HOP-62,0.0324 µM (active)
same,GI50,Hs-578T,0.0307 µM (active)
same,GI50,SNB-19,0.0519 µM (active)
same,GI50,ACHN,0.0367 µM (active)
same,GI50,HOP-92,0.0327 µM (active)
same,GI50,OVCAR-5,0.0479 µM (active)
CCc1nnc(S)n1/N=C\c1ccc(-c2ccccc2Cl)o1,GI50,786-0,30.8 µM (inactive)
same,GI50,SK-OV-3,56.9 µM (inactive)
same,GI50,SW-620,27.7 µM (inactive)
same,GI50,UACC-62,40.6 µM (inactive)
same,GI50,HCC 2998,27.3 µM (inactive)
same,GI50,OVCAR-8,24.3 µM (inactive)
same,GI50,BT-549,26.4 µM (inactive)
same,GI50,OVCAR-4,39.4 µM (inactive)
same,GI50,CCRF-CEM,27.5 µM (inactive)
same,GI50,HCT-116,23.8 µM (inactive)
same,GI50,SF-268,32.1 µM (inactive)
same,GI50,MDA-MB-435,21 µM (inactive)
same,GI50,NCI/ADR-RES,22 µM (inactive)
same,GI50,DU-145,41.3 µM (inactive)
same,GI50,MDA-N,20.5 µM (inactive)
same,GI50,TK-10,43.7 µM (inactive)
same,GI50,NCI-H522,24.1 µM (inactive)
same,GI50,RXF 393,38.9 µM (inactive)
same,GI50,RPMI-8226,20.5 µM (inactive)
same,GI50,MDA-MB-231,42.2 µM (inactive)
same,GI50,CAKI-1,45.3 µM (inactive)
same,GI50,IGROV-1,38.7 µM (inactive)
same,GI50,A498,36.6 µM (inactive)
same,GI50,HT-29,33.4 µM (inactive)
same,GI50,SNB-75,28.2 µM (inactive)
same,GI50,NCI-H226,17.5 µM (inactive)
same,GI50,MOLT-4,17.5 µM (inactive)
same,GI50,SF-295,46.2 µM (inactive)
same,GI50,COLO 205,31.3 µM (inactive)
same,GI50,HL-60,20.4 µM (inactive)
same,GI50,U-251,32.3 µM (inactive)
same,GI50,SF-539,23 µM (inactive)
same,GI50,LOX IMVI,23.5 µM (inactive)
same,GI50,Malme-3M,55.7 µM (inactive)
same,GI50,T47D,25.1 µM (inactive)
same,GI50,EKVX,36.4 µM (inactive)
same,GI50,UACC-257,53.5 µM (inactive)
same,GI50,A549,32.6 µM (inactive)
same,GI50,PC-3,37.4 µM (inactive)
same,GI50,SN12C,37.2 µM (inactive)
same,GI50,M14,33.2 µM (inactive)
same,GI50,MCF7,32 µM (inactive)
same,GI50,KM12,28.8 µM (inactive)
same,GI50,OVCAR-3,40.6 µM (inactive)
same,GI50,K562,21.9 µM (inactive)
same,GI50,NCI-H460,32.4 µM (inactive)
same,GI50,NCI-H23,26.4 µM (inactive)
same,GI50,HCT-15,28.2 µM
same,GI50,SR,19.6 µM (inactive)
same,GI50,UO-31,37.7 µM (inactive)
same,GI50,SK-MEL-5,14.3 µM (inactive)
same,GI50,HOP-62,90.2 µM (inactive)
same,GI50,Hs-578T,57 µM (inactive)
same,GI50,SK-MEL-2,30.8 µM (inactive)
same,GI50,SNB-19,45.3 µM (inactive)
same,GI50,ACHN,60.8 µM (inactive)
same,GI50,HOP-92,33.2 µM (inactive)
same,GI50,OVCAR-5,64.6 µM (inactive)
